Data from the NIST ThermoML archive (doi:10.1021/acs.jced.8b00812).

Conditions: Liquid; for viscosity: Capillary tube (Ostwald / Ubbelohde) method; for mass density: Vibrating tube method

CCCCCCCCO [octan-1-ol]
Conditions | mass density [kg/m3] | viscosity [mPa·s]
298.15 K, 2000 kPa | 823.6 | 7.363
298.15 K, 4010 kPa | 824.8 | 7.542
298.15 K, 6000 kPa | 826 | 7.702
298.15 K, 8000 kPa | 827.2 | 7.865
298.15 K, 10000 kPa | 828.4 | 8.031
298.15 K, 13010 kPa | 830.1 | 8.3
298.15 K, 16010 kPa | 831.8 | 8.568
298.15 K, 18990 kPa | 833.4 | 8.825
298.15 K, 22010 kPa | 835 | 9.112
298.15 K, 25010 kPa | 836.6 | 9.397
298.15 K, 28010 kPa | 838.3 | 9.668
298.15 K, 30010 kPa | 839.3 | 9.866
303.15 K, 1990 kPa | 819.4 | 6.327
303.15 K, 3990 kPa | 820.6 | 6.481
303.15 K, 5980 kPa | 821.9 | 6.632
303.15 K, 10010 kPa | 824.4 | 6.941
303.15 K, 16020 kPa | 827.9 | 7.4
303.15 K, 19030 kPa | 829.7 | 7.63
303.15 K, 25000 kPa | 833 | 8.087
303.15 K, 29980 kPa | 835.6 | 8.468
303.16 K, 7980 kPa | 823.1 | 6.785
303.16 K, 13000 kPa | 826.2 | 7.169
303.16 K, 22010 kPa | 831.3 | 7.858
303.16 K, 28000 kPa | 834.6 | 8.316
313.15 K, 1970 kPa | 812.3 | 4.516
313.15 K, 4000 kPa | 813.6 | 4.627
313.15 K, 6010 kPa | 815 | 4.737
313.15 K, 8000 kPa | 816.3 | 4.846
313.15 K, 10010 kPa | 817.5 | 4.955
313.15 K, 13030 kPa | 819.4 | 5.12
313.15 K, 15980 kPa | 821.2 | 5.281
313.15 K, 18990 kPa | 823 | 5.446
313.15 K, 21990 kPa | 824.8 | 5.61
313.15 K, 25000 kPa | 826.5 | 5.774
313.15 K, 27980 kPa | 828.2 | 5.937
313.15 K, 29990 kPa | 829.3 | 6.047
323.15 K, 2010 kPa | 805.6 | 3.262
323.15 K, 4010 kPa | 807 | 3.348
323.15 K, 6010 kPa | 808.4 | 3.427
323.15 K, 8000 kPa | 809.7 | 3.499
323.15 K, 10010 kPa | 811.1 | 3.573
323.15 K, 13020 kPa | 813 | 3.688
323.15 K, 16020 kPa | 814.9 | 3.797
323.15 K, 19010 kPa | 816.8 | 3.91
323.15 K, 22000 kPa | 818.6 | 4.03
323.15 K, 25010 kPa | 820.4 | 4.149
323.15 K, 28010 kPa | 822.1 | 4.264
323.15 K, 30020 kPa | 823.3 | 4.343
